From patent US4898936A, “2-deoxyuridines and riboside precursors” (priority 1985, dated 1990)
Values joined by “and” are separate entries in the source; they are usually repeats but may differ in a detail not shown here. Equal entries are not always repeated.

Assays:
Sarcoma 180 [1] = assay: Comparison of activities of antitumor agents on Sarcoma 180 in mice (50% tumor regression); type: in vivo; conditions: Mus musculus
From the text: In comparison with the activities of other antitumor agents on Sarcoma 180 in mice, the following results were obtained: […]

[2] = cited from earlier work; for Toxicity value (B): Administration amount of test compound at which weight increase of test animal is inhibited by 50% compared with that of control group: oral, once a day for 7 consecutive days, mice
Sarcoma 180 [3] = assay: Antitumor activity in mice against Sarcoma 180 (effective dose); type: in vivo; conditions: Sarcoma 180, mice; for ED50: Mus musculus, po, effective dose, administered orally
Method: (§1) The effective dose and the lethal dose has been determined as follows:
^+ Test animals alive at indicated dose. The dosage is administered

Sarcoma 180 [4] = conditions: cited from earlier work; for Antitumor activity value (A): Administration amount of test compound, at which tumor enhancement is inhibited by 50% compared with that of control group: oral, once a day for 7 consecutive days, tumor weight on tenth day, Sarcoma 180, mice, 14400 min
Sarcoma 180 [5] = type: in vivo, mouse (male ICR/JCL-strain); conditions: toxicity value (B) / antitumor activity value (A); oral, mice
Method: (c) Calculation of therapeutic index
By the use of the antitumor activity value (hereinafter referred to as A) and the toxicity value (hereinafter referred to as B) of each compound, which were obtained in the above items (a) and (b), respectively, therapeutic index (hereinafer referred to as C) was calculated in accordance with the following equation: […]
Pharmacological tests-(Continued) [formula]

Sarcoma 180 [6] = conditions: from Table 1; cited from earlier work
Hygroscopicity = type: physicochemical; conditions: beta-anomer
[7] = type: in vivo; conditions: lethal dose, administered orally; + Test animals alive at indicated dose
Method: as §1
The dosage is administered

Nc1nc(=O)n([C@H]2C[C@H](O)[C@@H](CO)O2)cc1C(F)(F)F [CF3 dC, 5-Trifluoromethyl-2deoxycytidine]
ED50 (Sarcoma 180 [1]): 60 to 80 mg/kg

O=c1[nH]c(=O)n([C@H]2C[C@H](O)[C@@H](CO)O2)cc1C(F)(F)F [F3 TdR, 2'-deoxy-5-trifluoromethyluridine, reference compound]
Toxicity value (B): Administration amount of test compound at which weight increase of test animal is inhibited by 50% compared with that of control group [2]: 49 mg/kg/day and 40 mg/kg/day | ED50 (Sarcoma 180 [3]): 75 mg/kg | ED50 (Sarcoma 180 [1]): 60 to 80 mg/kg | Antitumor activity value (A): Administration amount of test compound, at which tumor enhancement is inhibited by 50% compared with that of control group (Sarcoma 180 [4]): 68 mg/kg/day and 58 mg/kg/day

O=c1[nH]c(=O)n([C@H]2C[C@H](O)[C@@H](CO)O2)cc1F [FudR, 2'-deoxy-5-fluorouridine, reference compound]
Toxicity value (B): Administration amount of test compound at which weight increase of test animal is inhibited by 50% compared with that of control group [2]: 71 mg/kg/day | Therapeutic Index (C) = (B)/(A) (Sarcoma 180 [5]): 0.76 | Antitumor activity value (A): Administration amount of test compound, at which tumor enhancement is inhibited by 50% compared with that of control group (Sarcoma 180 [4]): 93 mg/kg/day

O=c1[nH]c(=O)n(C2CCCO2)cc1F (stereo not shown) [Ftorafur]
ED50 (Sarcoma 180 [1]): 120 mg/kg

O=c1[nH]c(=O)n([C@H]2C[C@H](OCc3ccccc3)[C@@H](CO)O2)cc1F [3'-O-Benzyl-2'-deoxy-5-fluorouridine, 3'-O-Benzyl-2'-Deoxy-5-Fluorouridine]
usefulness when compared in therapeutic index (in words) (Sarcoma 180 [6]): especially useful | Toxicity value (B): Administration amount of test compound at which weight increase of test animal is inhibited by 50% compared with that of control group [2]: 35 mg/kg/day | antitumor activity in mice against Sarcoma 180 (in words) (Sarcoma 180 [3]): show antitumor activity in mice against Sarcoma 180 | Therapeutic Index (C) = (B)/(A) (Sarcoma 180 [5]): 2.06 | hygroscopicity (Hygroscopicity): not hygroscopic | Antitumor activity value (A): Administration amount of test compound, at which tumor enhancement is inhibited by 50% compared with that of control group (Sarcoma 180 [4]): 17 mg/kg/day

O=c1[nH]c(=O)n([C@H]2C[C@H](OCc3ccccc3)[C@@H](CO)O2)cc1C(F)(F)F [3'-O-Benzyl-2'-Deoxy-5-Trifluoromethyluridine]
usefulness when compared in therapeutic index (in words) (Sarcoma 180 [6]): especially useful | toxicity compared with F3 TdR and FudR (in words) ([2]; from Table 1): equal or superior to F3 TdR and FudR in toxicity | Toxicity value (B): Administration amount of test compound at which weight increase of test animal is inhibited by 50% compared with that of control group [2]: 32 mg/kg/day | ED50 (Sarcoma 180 [3]): 14 mg/kg | antitumor activity in mice against Sarcoma 180 (in words) (Sarcoma 180 [3]): show antitumor activity in mice against Sarcoma 180 | LD10 [7]: 80 mg/kg | ED50 (Sarcoma 180 [1]): 14 mg/kg | Therapeutic Index (C) = (B)/(A) (Sarcoma 180 [5]): 1.88 | antitumor activity compared with F3 TdR and FudR (in words) (Sarcoma 180 [4]; from Table 1): far superior to them in antitumor activity | Antitumor activity value (A): Administration amount of test compound, at which tumor enhancement is inhibited by 50% compared with that of control group (Sarcoma 180 [4]): 17 mg/kg/day
